Laboratory results published in paper PMC9331544, “Molecular Physicochemical Properties of Selected Pesticides as Predictive Factors for Oxidative Stress and Apoptosis-Dependent Cell Death in Caco-2 and HepG2 Cells” (International Journal of Molecular Sciences, 2022).
Converted amounts (≈) assume the structure as drawn. “Also recorded” adds a separate entry of the source.

What was measured:
[1] = tested on: Caco-2 cells; assay: Intracellular ROS content, DCFDA, flow cytometry; format: cell-based, human; settings: 24 h
Protocol: (§1) To assess pesticides-induced oxidative stress, the intracellular content in reactive oxygen species (ROS), content in glutathione (GSH), and lipid peroxidation was quantified by flow cytometry, following the methods described by Domínguez-Perles, et al. and Queiroz, et al.. Briefly, to assess ROS content, cells re-suspended in PBS (from Section 3.3.1) were centrifuged (5 min, 3000 rpm, bench micro-centrifuge) and, after eliminating the supernatant, 200 μL of 10 µM DCFDA solution (prepared in FBS-free DMEM) was added to each sample. After a 45 min incubation at 37 °C (in the dark, in an incubator), cells were centrifuged to remove excess of probe and re-suspended in PBS. Finally, 5 μL of propidium iodide (PI; 50 μg/mL) was added to each sample 3 min before flow cytometry acquisition.

[2] = tested on: HepG2 cells; assay: Intracellular ROS content, DCFDA, flow cytometry; format: cell-based, human; settings: HepG2, 75 μM, 24 h
Protocol: as §1

[3] = tested on: Caco-2 cells; assay: Lipid peroxidation, DHPE-FITC probe, flow cytometry; format: cell-based, human; settings: Caco-2, 24 h, tested concentrations
Protocol: (§2) Lipid peroxidation was evaluated using the DHPE-FITC probe. Cells re-suspended in PBS (see Section 3.3.1) were incubated with 20 μM DHPE-FITC, for 20 min in the dark at room temperature (as describe).

[4] = tested on: HepG2 cells; assay: as above; format: cell-based, human; settings: HepG2, 24 h, tested concentrations
Protocol: as §2

[5] = tested on: Caco-2 cells; assay: Apoptosis/necrosis, Annexin-V-FITC/PI double staining, flow cytometry; format: cell-based, human
Protocol: (§3) The samples where then incubated for 20 min at room temperature. After this period, 5 μL of propidium iodide (PI; at 50 μg/mL) solution were added to each sample 3 min before acquisition.

[6] = tested on: HepG2 cells; assay: as above; format: cell-based, human; settings: HepG2, 24 h, tested concentrations; listed as IMZ
Protocol: as §3

[7] = tested on: Caco-2 cells; assay: Literature: Caco-2 cell viability; format: cell-based, human; settings: Caco-2, 24 h, ref [34] value vs Table 1
[8] = tested on: Caco-2 cells; settings: Caco-2, 24 h, ref [34], cited from earlier work
[9] = tested on: Caco-2 cells; parameters: method as in doi:10.1016/j.envpol.2020.114660; settings: Caco-2, 30 µg/mL (~100 µM), fluorescence microscopy; ref [34]; cited from earlier work
[10] = ref [47],[48],[49],[50]; cited from earlier work

C=CCOC(Cn1ccnc1)c1ccc(Cl)cc1Cl (centres unmarked) [Imazalil, imazalil]
increase in ROS content compared with control ([1]; Caco-2, 75 μM): 2.40 fold | increase in ROS content compared with control ([1]; Caco-2, 250 μM): 6.5 fold | increase in ROS content compared with control [2]: 4.56 fold | lipid peroxidation (LP) vs control (in words) [3]: induced significant LP | lipid peroxidation (LP) vs control (in words) [4]: did not increase lipid peroxidation | apoptosis/necrosis induction (in words) ([5]; Caco-2, 24 h, tested concentrations, listed as IMZ): dose-dependent increase in late apoptosis | cells in necrosis ([5]; Caco-2, highest concentration (250 μM), 24 h, Figure 6B): ~ 23% | apoptosis/necrosis induction (in words) [6]: dose-dependently increased apoptosis; also recorded: no necrotic events recorded | literature IC50 lower than the IC50 here reported [7]: 2.53 fold | IC50 ([8]; converted value, read-out: IC50 (cytotoxicity)): ~100 µM | IC50 (cytotoxicity) [8]: 30 mg/L (≈ 101 µM) | ROS content (in words) [9]: increase in ROS content | H-bond (donor count) [10]: 0 | H-donor (acceptor count) [10]: 2
